Legend:
Assay in all cases: Growth inhibition and biocidal activity evaluation of glycyrrhizic acid hydrogels
MRSA = format: cell-based, Methicillin-resistant Staphylococcus aureus; conditions: bactericidal = 3 LOG reduction compared to the inoculum
Source text: Escherichia coli UTI89, Pseudomonas aeruginosa LMG9009, Staphylococcus aureus ATCC6538, Klebsiella pneumoniae ATCC13883, Klebsiella aerogenes ATCC13048, Acinetobacter baumannii RD5SR3. Enterococcus faecalis LMG8148, Streptococcus pyogenes LMG 14237 and clinical isolates of a Staphylococcus epidermidis and a methicillin resistant S. aureus (MRSA), isolated from osteomyelitis patients were used. Prior to the experiments, all strains, except S. pyogenes were inoculated in Lysogeny broth (LB) and incubated overnight on 37° C. (200 rpm). Overnight cultures of S. pyogenes were grown micro-aerophilic in Brain-Heart infusion broth (BHI). Thereafter, the bacteria were normalized to roughly 5*10^5 CFU mL^−1. Lysogeny broth (LB; 10 g L^−1 NaCl, 10 g L^−1 Tryptone, 5 g L^−1 Yeast Extract) was used to create overnight cultures (ONC). […]
(i) Hydrogel C with pH=3, (ii) Hydrogel B with pH=3.8 and (iii) Hydrogel A with pH=4.2. pH was measured at 70° C. and varied using HCl or NaOH to acidify or alkalify the formulation to the desired pH-value. […]
To avoid evaporation, the plates were sealed using a membrane (Greiner Bio-one NV). After 24 hours of incubation (37° C., 200 rpm), the OD595 was measured and relative OD595 was calculated by dividing the OD595 by the average OD595 of the growth control (=growth of cells in MHB without glycyrrhizic acid). […]

[1] = tested on: Acinetobacter baumannii RD5SR3; format: cell-based; conditions: A. baumannii; bactericidal = 3 LOG reduction compared to the inoculum
Source text: (§1) Escherichia coli UTI89, Pseudomonas aeruginosa LMG9009, Staphylococcus aureus ATCC6538, Klebsiella pneumoniae ATCC13883, Klebsiella aerogenes ATCC13048, Acinetobacter baumannii RD5SR3. Enterococcus faecalis LMG8148, Streptococcus pyogenes LMG 14237 and clinical isolates of a Staphylococcus epidermidis and a methicillin resistant S. aureus (MRSA), isolated from osteomyelitis patients were used. Prior to the experiments, all strains, except S. pyogenes were inoculated in Lysogeny broth (LB) and incubated overnight on 37° C. (200 rpm). Overnight cultures of S. pyogenes were grown micro-aerophilic in Brain-Heart infusion broth (BHI). Thereafter, the bacteria were normalized to roughly 5*10^5 CFU mL^−1. Lysogeny broth (LB; 10 g L^−1 NaCl, 10 g L^−1 Tryptone, 5 g L^−1 Yeast Extract) was used to create overnight cultures (ONC). Mueller Hinton Broth (MHB; 21 g L^−1 MHB) was used for the minimal inhibitory concentration (MIC) assays for all strain except S. pyogenes. For this strain, BHI was used. If LB agar, BHI agar or MHB agar was needed, 15 g L^−1 of bacteriological agar was added. MHB or BHI batches with varying pH were made by adding HCl or NaOH to acidify or alkalify the medium to the desired pH-value, respectively. Three different formulations of the glycyrrhizic acid hydrogels were made in dH2O:
(§2) (i) Hydrogel C with pH=3, (ii) Hydrogel B with pH=3.8 and (iii) Hydrogel A with pH=4.2. pH was measured at 70° C. and varied using HCl or NaOH to acidify or alkalify the formulation to the desired pH-value. Moreover, different concentration batches (mass by volume) were used for the hydrogels: 2.5%, 5%, 7,5%, 10%, 15% and 20%. Glycyrrhizic acid in solution—not a hydrogel—was prepared at pH 7,4.
(§3) To determine the growth inhibiting activity of glycyrrhizic acid in solution, 100 μL of different 1:2 dilutions of a 100 mg/mL stock solution of glycyrrhizic acid in MHB were added to the wells of a 96 well microtiter plate, after which 100 μL of a 5*10^5 CFU mL^−1 bacteria suspension in MHB was added to each well.
(§4) To determine the growth inhibiting activity of the glycyrrhizic acid hydrogels, the hydrogel was liquefied by heating to 70° C. When liquid, varying volumes of the liquid hydrogel (80 μL to 160 μL) were pipetted into a 96 well microtiter plate. After the hydrogel solidified, 120 μL of a 5*10^5 CFU mL^−1 bacteria suspension in MHB was added on top of the hydrogel.
(§5) To avoid evaporation, the plates were sealed using a membrane (Greiner Bio-one NV). After 24 hours of incubation (37° C., 200 rpm), the OD595 was measured and relative OD595 was calculated by dividing the OD595 by the average OD595 of the growth control (=growth of cells in MHB without glycyrrhizic acid).
(§6) To determine the biocidal activity of glycyrrhizic acid in solution and in hydrogel, at the end of the growth inhibition assay (see above), after incubation, 100 μL of the medium on top of the hydrogel was diluted 10 times in Phosphate saline buffer (PBS; 1.24 g L^−1 K2HPO4. 0.39 g L^−1 KH2PO4. 8.8 g L^−1 NaCl) and plated out on MHB agar plates by spreading 100 μL of the dilution. After incubating overnight at 37° C., colonies were counted and the colony forming units were determined.

[2] = tested on: Enterococcus faecalis LMG8148; format: cell-based; conditions: bactericidal = 3 LOG reduction compared to the inoculum
Source text: as §1, §2, §3, §4, §5, §6

Escherichia coli UTI89 = format: cell-based; conditions: E. coli; bactericidal = 3 LOG reduction compared to the inoculum
Source text: as §1, §2, §3, §4, §5, §6

[3] = tested on: Klebsiella aerogenes ATCC13048; format: cell-based; conditions: K. aerogenes; bactericidal = 3 LOG reduction compared to the inoculum
Source text: as §1, §2, §3, §4, §5, §6

[4] = tested on: Klebsiella pneumoniae ATCC13883; format: cell-based; conditions: K. pneumoniae; bactericidal = 3 LOG reduction compared to the inoculum
Source text: as §1, §2, §3, §4, §5, §6

[5] = tested on: Pseudomonas aeruginosa LMG9009; format: cell-based; conditions: P. aeruginosa; bactericidal = 3 LOG reduction compared to the inoculum
Source text: as §1, §2, §3, §4, §5, §6

[6] = tested on: Staphylococcus epidermidis; format: cell-based; conditions: S. epidermidis; bactericidal = 3 LOG reduction compared to the inoculum
Source text: as §1, §2, §3, §4, §5, §6

[7] = tested on: Streptococcus pyogenes LMG 14237; format: cell-based
Source text: as §1, §2, §3, §4, §5, §6

Structure (SMILES): CC1(C)[C@@H](O[C@H]2O[C@H](C(=O)O)[C@@H](O)[C@H](O)[C@H]2O[C@@H]2O[C@H](C(=O)O)[C@@H](O)[C@H](O)[C@H]2O)CC[C@]2(C)[C@H]3C(=O)C=C4[C@@H]5C[C@@](C)(C(=O)O)CC[C@]5(C)CC[C@@]4(C)[C@]3(C)CC[C@@H]12 [GLY in solution, glycyrrhizic acid]
- antibacterial effect (no effect, bacteriostatic, bactericidal) (MRSA): No effect
- antibacterial effect (no effect, bacteriostatic, bactericidal) [1]: No effect
- antibacterial effect (no effect, bacteriostatic, bactericidal) [2]: No effect
- antibacterial effect (no effect, bacteriostatic, bactericidal) (Escherichia coli UTI89): No effect
- antibacterial effect (no effect, bacteriostatic, bactericidal) [3]: No effect
- antibacterial effect (no effect, bacteriostatic, bactericidal) [4]: No effect
- antibacterial effect (no effect, bacteriostatic, bactericidal) [5]: No effect
- antibacterial effect (no effect, bacteriostatic, bactericidal) [6]: No effect
- growth inhibition ([7]; 50 mg/mL in solution, pH 7.0, only one of nine pathogens tested that was inhibited): inhibited
- antibacterial effect (no effect, bacteriostatic, bactericidal) ([7]; Streptococcus, bactericidal = 3 LOG reduction compared to the inoculum): Bacteriostatic

From patent US20260284091A1, “IMIDAZOLE LOADED GLYCYRRHIZIC ACID HYDROGELS” (KATHOLIEKE UNIVERSITEIT LEUVEN, priority 2023, published 2026)
